Laboratory results published in ChEMBL document CHEMBL1144576, “Synthesis and antitumour evaluation of peptidyl-like derivatives containing the 1,3-benzodioxole system” (Eur J Med Chem, 2007).

Tests used:
Lytechinus variegatus [1] = assay: Antimitotic effect in Lytechinus variegatus at third cleavage stage at 10 ug/mL; assay type: functional
Lytechinus variegatus [2] = assay: Antimitotic effect in Lytechinus variegatus at blastulae stage at 100 ug/mL; assay type: functional, Blastula stage
Lytechinus variegatus [3] = assay: Antimitotic effect in Lytechinus variegatus at first cleavage stage at 10 ug/mL; assay type: functional
Lytechinus variegatus [4] = assay: Antimitotic effect in Lytechinus variegatus at third cleavage stage at 100 ug/mL; assay type: functional
SF-295 = assay: Cytotoxicity against SF295 cells; assay type: functional, cell-based; conditions: Homo sapiens
MDA-MB-435 = assay: Cytotoxicity against MDA-MB-435 cells; assay type: functional, cell-based; conditions: Homo sapiens
HCT-8 = assay: Cytotoxicity against HCT8 cells; assay type: functional, cell-based; conditions: Homo sapiens
Lytechinus variegatus [5] = assay: Antimitotic effect in Lytechinus variegatus at first cleavage stage at 100 ug/mL; assay type: functional
Lytechinus variegatus [6] = assay: Antimitotic effect in Lytechinus variegatus at blastulae stage at 10 ug/mL; assay type: functional, Blastula stage
HL-60 = assay: Cytotoxicity against HL60 cells; assay type: functional, cell-based; conditions: Homo sapiens

Structure (SMILES)	Activity (Lytechinus variegatus [1]) [%]	Activity (Lytechinus variegatus [2]) [%]	Activity (Lytechinus variegatus [3]) [%]	Activity (Lytechinus variegatus [4]) [%]	IC50 (SF-295) [µM]	IC50 (MDA-MB-435) [µM]	IC50 (HCT-8) [µM]	Activity (Lytechinus variegatus [5]) [%]	Activity (Lytechinus variegatus [6]) [%]	IC50 (HL-60) [µM]
COc1cccc2c1C(=O)c1c(O)c3c(c(O)c1C2=O)C[C@@](O)(C(=O)CO)C[C@@H]3O[C@H]1C[C@H](N)[C@H](O)[C@H](C)O1 [DOXORUBICIN]	0	0	36	1.5	0.42	0.83	0.03	16.3	0.3	–
NC(=O)[C@H](Cc1ccc(Oc2c(Cl)cccc2Cl)cc1)NC(=O)Cc1cc2c(cc1[N+](=O)[O-])OCO2	38	15	92.3	46	> 50	9.9	8.5	85.3	1.7	> 50
CC[C@@H](C)[C@H](NC(=O)Cc1ccc2c(c1)OCO2)C(N)=O	62	84.7	89.3	70.3	> 50	> 50	> 50	87.7	94.7	> 50
CC(C)[C@H](NC(=O)Cc1ccc2c(c1)OCO2)C(N)=O	67	1	88	61.7	> 50	> 50	> 50	70.7	96.7	> 50
NC(=O)[C@H](Cc1ccccc1)NC(=O)Cc1cc2c(cc1[N+](=O)[O-])OCO2	73.3	0	86.3	5.3	> 50	> 50	> 50	1.7	92	> 50
CC(C)C[C@H](NC(=O)Cc1cc2c(cc1[N+](=O)[O-])OCO2)C(N)=O	77	89	88.3	72.7	19.1	> 50	> 50	94.3	80.3	> 50
CC(C)(C)OC(=O)NCCCC[C@H](NC(=O)Cc1cc2c(cc1[N+](=O)[O-])OCO2)C(N)=O	72.3	3.7	88.7	66.3	31.6	9.2	> 50	88.7	79.7	5.4
C[C@H](NC(=O)Cc1ccc2c(c1)OCO2)C(N)=O	68.3	87.7	76.3	78.7	> 50	> 50	> 50	76.5	92	> 50
CCOC(=O)CNC(=O)Cc1ccc2c(c1)OCO2	71.3	0.3	83	15.7	13.5	> 50	4.3	79.7	83.7	18.7
C=CCc1ccc2c(c1)OCO2 [SAFROLE]	33.7	0.3	59.5	0	32.6	105	36.1	0.7	31.7	104
